Values quoted from earlier work in patent US6689394B2, “Removal of ectoparasites” (Schering-Plough HealthCare Products, Inc., priority 2001, dated 2004).

Tested on: head lice
Conditions: comparison of published results for topical pesticidal treatments

Compound: CC1(C)C(C=C(Cl)Cl)C1C(=O)OCc1cccc(Oc2ccccc2)c1 (stereo not shown) [Permethrin]
- evidence of clinical efficacy: sufficient evidence of efficacy
